These results are taken from patent publication US6229016A, “Method for treating tumors using 2-aryl-naphthyridin-4-ones” (priority 2000, dated 2001).

The test system of assay [1] is OVCAR-3 ovarian cancer cell line. Kind of assay: NCI in vitro screen, ovarian cancer OVCAR-3. It is filed as cell-based. The following applies: Homo sapiens, read-out: Cytotoxicity log GI50 (converted).
Assay [2] deals with NCI-H460 non-small cell lung cancer cell line. Kind of assay: NCI in vitro screen, non-small cell lung cancer NCI-H460. The following applies: Homo sapiens, read-out: Cytotoxicity log GI50 (converted). It is filed as cell-based.
The test system of assay [3] is PC-3 prostate cancer cell line. In words: NCI in vitro screen, prostate cancer PC-3. Conditions: Homo sapiens, read-out: Cytotoxicity log GI50 (converted). It is filed as cell-based.
The subject of assay [4] is U-251 CNS cancer cell line. In words: NCI in vitro screen, CNS cancer U-251. It is filed as cell-based. Conditions: Homo sapiens, read-out: Cytotoxicity log GI50 (converted).
The test system of assay [5] is SK-MEL-5 melanoma cell line. Kind of assay: NCI in vitro screen, melanoma SK-MEL-5. It is filed as cell-based. The following applies: Homo sapiens, read-out: Cytotoxicity log GI50 (converted).
For assay [6], the system named is NCI's 60 human tumor cell line. Kind of assay: NCI 60 human tumor cell line in vitro screen (average / whole panel). The following applies: calculated from all cell lines tested, molar concentrations, read-out: average log GI50 (converted). It is filed as cell-based.
Assay [7] has as its system MDA-N breast cancer cell line. Kind of assay: NCI in vitro screen, breast cancer MDA-N. It is filed as cell-based. The following applies: Homo sapiens, read-out: Cytotoxicity log GI50 (converted).
Assay [8] concerns HCT-116 colon cancer cell line. In words: NCI in vitro screen, colon cancer HCT-116. It is filed as cell-based. The following applies: Homo sapiens; HCT-1.16 (head); HCT-116 (footnote); read-out: Cytotoxicity log GI50 (converted).
Assay [9] deals with 786-0 renal cancer cell line. In words: NCI in vitro screen, renal cancer 786-0. The following applies: Homo sapiens, read-out: Cytotoxicity log GI50 (converted). It is filed as cell-based.
Assay [10] deals with SF-295 CNS cancer cell line. In words: NCI in vitro screen, CNS cancer SF-295. It is filed as cell-based. Conditions: Homo sapiens, read-out: Cytotoxicity log GI50 (converted).
The next assay relates to tubulin. In words: Tubulin polymerization assay. It is filed as biochemical, bovine. The method, then:
Electrophoretically homogeneous bovine brain tubulin was purified as described in E. Hamel, et al. Biochemistry 23:4173 (1984).
The tubulin polymerization assay was performed as described in S. Kuo, et al. J. Med. Chem. 36:1146 (1993); L. Li, et al. J. Med. Chem. 37:1126 (1994); and L. Li J. Med. Chem. 37:3400 (1994). In brief, tubulin at 1.2 mg/ml (12 μM) was preincubated for 15 min at 26° C. in a 0.24-ml volume of 0.8 M monosodium glutamate (pH 6.6 with NaOH in a 2 M stock solution) with varying drug concentrations. The drug stock solutions were in DMSO, and the final solvent concentration was 4 % (v/v). All concentrations are in terms of the final reaction volume (0.25 ml). The reaction mixtures were chilled on ice, and 10 μl of 10 mM GTP was added to each reaction mixture. Samples were transferred to cuvettes held at 0° C. by an electronic temperature controller in Gilford spectrophotometers. Baselines were established at 350 nm, and polymerization initiated by a temperature jump to 26° C. The jump took about 50 sec to complete. After 20 min, turbidity readings were recorded, and the temperature controller was set to 0C. When depolymerization was complete, turbidity readings were again recorded. […] IC50 values were obtained graphically from inhibition of polymerization by different drug concentrations.
Electrophoretically, homogeneous bovine brain tubulin was purified as described in Example 6.
The tubulin polymerization assay was performed as described in Example 6.

Assay [11] deals with HL-60(TB) leukemia cell line. In words: cells. It is filed as cell-based. Conditions: Homo sapiens; HL-60(TB); read-out: Cytotoxicity log GI50 (converted).
Assay [12] has as its system MDA-MB-435 breast cancer cell line. In words: NCI in vitro screen, breast cancer MDA-MB-435. It is filed as cell-based. The following applies: Homo sapiens, read-out: Cytotoxicity log GI50 (converted).
The mark [13] stands for this setting: Tables 1 and 4, read-out: ITP HC50 ± SD (Inhibition of Tubulin Polymerization).
Where [14] appears, read: read-out: IC50, inhibition of tubulin polymerization.

SMILES strings stand for the structures. Where two headings read alike, the source gives them in different places.

As to `COc1ccc(C2=Nc3ncc(C)cc3C(=O)C2)cc1` [Compound 53, 2-(4'-Methoxyphenyl)-6-methyl-1,8-naphthyridin-4-one], the concentration for 50% growth inhibition (GI50) was 2.95 µM in [1]; 4.07 µM in assay [2]; 5.37 µM in [3]; 4.17 µM in [4]; 3.72 µM in assay [5]; 6.17 µM in assay [6]. The concentration for 50% growth inhibition (GI50) is 1.7 µM in assay [7]; 4.17 µM in [8]; 5.13 µM in assay [9]; 5.25 µM in assay [10]; 2.29 µM in assay [11]; 1.82 µM in assay [12]. For the same molecule, the IC50 with tubulin (setting [13]) was 7.7 ± 0.7 µM; in the assay with tubulin (setting [14]), 1.5 to 9.8 µM.
Turning to `COc1ccc(C2=Nc3nc(C)ccc3C(=O)C2)cc1` [Compound 54, 2-(4'-Methoxyphenyl)-7-methyl-1,8-naphthyridin-4-one], the GI50 in assay [1] is over 100 µM; in assay [2] it was over 100 µM; in assay [3] it was over 100 µM; in assay [4], over 100 µM; in assay [5], 47.9 µM; in [6], 91.2 µM. Also, the GI50 in assay [7] was 55 µM; in assay [8], over 100 µM; in assay [9] it was over 100 µM; in assay [10], 89.1 µM; in [11], over 100 µM; in assay [12], 42.7 µM. Further, the IC50 in the assay with tubulin (setting [13]) is over 40 µM.
As for `COc1ccc(C2=Nc3nc(C)cc(C)c3C(=O)C2)cc1` [Compound 55, 2-(4'-Methoxyphenyl)-5,7-dimethyl-1,8-naphthyridin-4-one], the 50% growth inhibitory concentration (GI50) in [1] is 32.4 µM; in [2], 40.7 µM; in assay [3], 24 µM; in assay [4], 91.2 µM; in [5] it was 17.8 µM; in assay [6], 33.1 µM. Moreover, the GI50 was 33.1 µM in [7]; 36.3 µM in assay [8]; 58.9 µM in assay [9]; 42.7 µM in assay [10]; 15.8 µM in [11]; 28.8 µM in [12]. For the same molecule, in the assay with tubulin (setting [13]), the IC50 is over 40 µM.
Regarding `O=C1CC(c2ccc(F)cc2)=Nc2ncccc21` [Compound 56, 2-(4'-Fluorophenyl)-1,8-naphthyridin-4-one], the GI50 was 45.7 µM in assay [1]; 34.7 µM in assay [2]; 45.7 µM in [3]; 47.9 µM in assay [4]; 30.2 µM in assay [5]; 45.7 µM in assay [6]. The 50% growth inhibitory concentration (GI50) in assay [7] was 14.1 µM; in [8] it was 42.7 µM; in assay [9], 44.7 µM; in assay [10] it was 50.1 µM; in [11], 12.9 µM; in [12] it was 12 µM. In addition, the IC50 with tubulin (setting [13]) is over 40 µM.
As for `Cc1ccnc2c1C(=O)CC(c1ccc(F)cc1)=N2` [Compound 57, 2-(4'-Fluorophenyl)-5-methyl-1,8-naphthyridin-4-one], the 50% growth inhibitory concentration (GI50) was 56.2 µM in assay [1]; 32.4 µM in assay [2]; 51.3 µM in assay [3]; 36.3 µM in [4]; 16.2 µM in assay [5]; 38 µM in assay [6]. In addition, the GI50 in assay [7] is 3.55 µM; in assay [8] it was 16.2 µM; in assay [9] it was 33.9 µM; in assay [10] it was 79.4 µM; in assay [11] it was 4.79 µM; in assay [12], 2.88 µM. Also, the IC50 is 18 ± 2 µM with tubulin (setting [13]) and 11 to 32 µM with tubulin (setting [14]).
With `Cc1cnc2c(c1)C(=O)CC(c1ccc(F)cc1)=N2` [Compound 58, 2-(4'-Fluorophenyl)-6-methyl-1,8-naphthyridin-4-one], the 50% growth inhibitory concentration (GI50) in assay [1] is 22.4 µM; in [2] it was 33.9 µM; in assay [3], 25.7 µM; in [4], 25.1 µM; in assay [5] it was 21.9 µM; in [6] it was 26.3 µM. The concentration for 50% growth inhibition (GI50) in assay [7] was 3.02 µM; in [8], 24 µM; in [9] it was 32.4 µM; in [10], 29.5 µM; in assay [11], 2.4 µM; in assay [12], 2.63 µM. For the same molecule, the IC50 is 20 ± 2 µM in the assay with tubulin (setting [13]) and 11 to 32 µM with tubulin (setting [14]).
Take `Cc1ccc2c(n1)N=C(c1ccc(F)cc1)CC2=O` [Compound 59, 2-(4'-Fluorophenyl)-7-methyl-1,8-naphthyridin-4-one]: the concentration for 50% growth inhibition (GI50) in [1] is 32.4 µM; in [2], 33.9 µM; in [3], 20.9 µM; in assay [4], 37.2 µM; in [5], 31.6 µM; in [6], 32.4 µM. The concentration for 50% growth inhibition (GI50) in [7] is 11.7 µM; in assay [8], 33.9 µM; in assay [9] it was 41.7 µM; in [10] it was 37.2 µM; in assay [11], 14.1 µM; in [12], 5.89 µM. The IC50 in the assay with tubulin (setting [13]) and with tubulin (setting [14]) was over 40 µM each time.
`Cc1cc(C)c2c(n1)N=C(c1ccc(F)cc1)CC2=O` [Compound 60, 2-(4'-Fluorophenyl)-5,7-dimethyl-1,8-naphthyridin-4-one]: the GI50 is 43.7 µM in assay [1]; 51.3 µM in [2]; 30.2 µM in assay [3]; 95.5 µM in assay [4]; 26.3 µM in assay [5]; 40.7 µM in assay [6]. In addition, the 50% growth inhibitory concentration (GI50) is 25.1 µM in assay [7]; 50.1 µM in assay [8]; 79.4 µM in [9]; 50.1 µM in assay [10]; 15.5 µM in assay [11]; 18.6 µM in assay [12]. Besides, the IC50 in the assay on tubulin (setting [13]) and in the assay with tubulin (setting [14]) was over 40 µM in each case.
As for `O=C1CC(c2ccc(F)cc2)=Nc2ncc(Cl)cc21` [Compound 61, 2-(4'-Fluorophenyl)-6-chloro-1,8-naphthyridin-4-one], the GI50 was 17.4 µM in assay [1]; 30.2 µM in assay [2]; 21.9 µM in [3]; 29.5 µM in [4]; 6.61 µM in [5]; 21.9 µM in assay [6]. Moreover, the GI50 is 2.95 µM in assay [7]; 17 µM in assay [8]; 32.4 µM in assay [9]; 21.4 µM in assay [10]; 3.89 µM in assay [11]; 2.57 µM in assay [12]. The IC50 in the assay with tubulin (setting [13]) is 16 ± 3 µM; with tubulin (setting [14]) it was 11 to 32 µM.
As to `O=C1CC(c2ccc(Cl)cc2)=Nc2ncccc21` [Compound 62, 2-(4'-Chlorophenyl)-1,8-naphthyridin-4-one], the GI50 is 23.4 µM in assay [1]; 38 µM in assay [2]; 47.9 µM in [3]; 39.8 µM in [4]; 28.8 µM in assay [5]; 38.9 µM in assay [6]. Besides, the GI50 was 8.32 µM in assay [7]; 32.4 µM in [8]; 33.9 µM in [9]; 40.7 µM in assay [10]; 16.6 µM in assay [11]; 5.89 µM in assay [12]. Besides, the values for the IC50 in the assay with tubulin (setting [13]) and in the assay with tubulin (setting [14]) were 22 ± 0.1 µM and 11 to 32 µM, respectively.
For `Cc1ccnc2c1C(=O)CC(c1ccc(Cl)cc1)=N2` [Compound 63, 2-(4'-Chlorophenyl)-5-methyl-1,8-naphthyridin-4-one], the GI50 in [1] is 3.16 µM; in assay [2] it was 3.72 µM; in assay [3], 2.88 µM; in assay [4] it was 4.57 µM; in assay [5] it was 3.47 µM; in assay [6], 5.13 µM. In addition, the concentration for 50% growth inhibition (GI50) was 1.32 µM in [7]; 3.72 µM in [8]; 3.98 µM in assay [9]; 5.37 µM in assay [10]; 1.78 µM in assay [11]; 0.759 µM in assay [12]. Further, the IC50 with tubulin (setting [13]) was 4.8 ± 1.4 µM; with tubulin (setting [14]) it was 1.5 to 9.8 µM.
For `Cc1cnc2c(c1)C(=O)CC(c1ccc(Cl)cc1)=N2` [Compound 64, 2-(4'-Chlorophenyl)-6-methyl-1,8-naphthyridin-4-one], the concentration for 50% growth inhibition (GI50) in assay [1] was 2.24 µM; in [2] it was 3.89 µM; in assay [3], 1.15 µM; in assay [4] it was 3.02 µM; in assay [5] it was 2.19 µM; in assay [6], 3.72 µM. Also, the concentration for 50% growth inhibition (GI50) in assay [7] is 0.562 µM; in assay [8] it was 2.82 µM; in assay [9], 6.31 µM; in assay [10] it was 2.4 µM; in assay [11], 2.24 µM; in assay [12], 0.603 µM. The IC50 with tubulin (setting [13]) was 2 ± 0.01 µM; in the assay on tubulin (setting [14]), 1.5 to 9.8 µM.

One may read the GI50 as the concentration giving 50% growth inhibition.
